pIC50: −log10 of the molar value. Bridges are numbered along the chain shown (N, C = ends). Where no end group is shown, it is not given here.
What was measured:
[1] = test system: human U937 myelomonocytic cells; test: PI uptake flow cytometry cell permeabilisation assay, U937; assay type: cell-based; conditions: for PI+ U937 cells (mean ± SEM): 10 μM, absence of serum, Example 9, cell only control 27.03±0.52
Experimental: (§1) Unless otherwise stated, cells were re-suspended at a cell concentration of 4×10^5 cells/mL in complete culture RPMI-1640 medium supplemented with 10% FBS, 100 U/mL penicillin and 100 μg/mL streptomycin, and added to either a V-bottom 96-well plate or microfuge tubes. Cells were kept at 37° C., unless otherwise stated, during protein addition (5 μL) at various concentrations or the set concentration of 10 μM. Typically, cells were mixed with the protein of interest and incubated at 37° C. for 30 min. In certain experiments, cells were also incubated at either 4° C. or 37° C. for 2-60 min prior to flow cytometry analysis. Cells were added to an equal volume of complete culture medium containing 2 μg/mL propidium iodide (PI, Annexin V-FITC Apoptosis Detection Kit, Invitrogen) and analysed immediately by flow cytometry using a FACSCanto cell sorter (Becton Dickson, Fanklin Lakes, N.J.) and Cell Quest Pro Software (Becton Dickson). Typically, 5000-10000 events per sample were collected and the resultant data were analysed using FlowJo software (Tree Star, Ashland, Oreg.). Cells were gated appropriately based on forward scatter (FSC) and side scatter (SSC), with the viable cells determined by their ability to exclude PI. For analysis purposes, all data was standardised relative to control (normal cell % ranged from approx. 0-7%).
(§2) To determine whether NaD1 kills tumour cells in a similar manner to fungus, the ability of NaD1 to permeabilise tumour cells was assessed using two different approaches. The first used a bioluminescence assay to measure the release of intracellular ATP.
(§3) The first used a bioluminescence assay to measure the release of intracellular ATP. 4×10^4 U937 (human myelomonocytic tumour cell line) were treated with increasing concentrations of PhD1A or rTPP3 (0-20-μM) and ATP release measured at intervals of 30 seconds for a total of 30 min by determining absorbance at 562 nm. The second approach used flow cytometry to determine the uptake of the fluorescent dye propidium iodide (PI) (2 μg/mL) by U937 (4×10^5/mL) following the treatment of cells with increasing concentrations of PhD1A (0 to 50 μM) or rTPP3 (0 to 40 μM) for 30 min.
(§4) The percentage of PI^+ cells was then determined by flow cytometry.
(§5) The first used a bioluminescence assay to measure the release of intracellular ATP. 4×10^4U937 were treated with 10 μM of each defensin and ATP release measured at intervals of 30 seconds for a total of 30 min by determining absorbance at 562 nm. The second approach used flow cytometry to determine the uptake of the fluorescent dye propidium iodide (PI) (2 μg/mL) by U937 (4×10^5/mL) following the treatment of cells with […] of each defensin for 30 min.

[2] = test system: U937 human myelomonocytic cells; test: ATP bioluminescence (ATP release) assay, U937; assay type: cell-based; conditions: read over 30 min
Experimental: ATP bioluminescence assay (Roche Diagnostics, NSW Australia) was used to quantitate the release of ATP by permeabilised tumour cells. The Luciferase reagent was dissolved as per manufacturer's instructions and incubated for 5 min at 4° C. Briefly, cells were re-suspended at a concentration of 1×10^6 cells/mL in 1×PBS/0.1% BSA and added (40 μL/well) to the Luciferase reagent (50 μL/well) to a blank microtitre plate (Nunc™) containing 10 μL of protein samples. Simultaneously, using a multichannel pipette, the mixture was added (90 μL/well) and samples were immediately read on a microtitre plate reader at 562 nm for 30 min with readings taken at 30 s intervals. The data were analysed by SoftMaxPro 4.0 software (Molecular Devices Company).
as §2, §3, §5

U937 cells = test: PI uptake permeabilisation assay in the presence of serum; assay type: cell-based, human; conditions: for activity on tumour cells in the presence of serum: up to 40% serum; for PI+ U937 cells: 10 μM defensin
Experimental: as §1, §4
To assess the ability of PhD1A or rTPP3 to permeabilise tumour cells in the presence of serum, the PI-uptake flow cytometry assay was utilised as described in Example 2 with the following modifications: 4×10^5/mL U937 cells were incubated with […] PhD1A or rTPP3 in the presence of increasing concentrations of foetal calf serum (FCS) (0 to 40%) for 60 min followed by addition of 2 μg/mL PI. The percentage of PI^+ cells was then determined by flow cytometry.

[3] = Lipid-coated membrane strip binding assay (Echelon lipid strips); conditions: 0.12 μM, overnight, 4° C.
Experimental: Membrane Lipid Strips™, PIP Strips™ and Sphingo Strips™ (Echelon Biosciences, Salt Lake City, Utah) were incubated with PBS/3% BSA for 1-2 h at RT to block non-specific binding. The membrane strips were then incubated with defensins (0.12 μM) diluted in PBS/1% BSA overnight at 4° C., prior to thorough washing for 60 min at RT with PBS/0.1% Tween-20. […] After each antibody incubation, the membrane strips were washed extensively for 60 min at RT with PBS/0.1% Tween-20. Chemiluminescence was detected using the enhanced chemiluminescence (ECL) western blotting reagent (GE Healthcare BioSciences, NSW Australia) and exposed to Hyperfilm (GE Healthcare BioSciences, NSW, Australia) and developed using an Xomat (All-Pro-Imaging).
Densitometry analysis was performed on images obtained from lipid strips using ImageJ (National Institute of Health, Bethesda, Md.). Briefly, circles of equivalent size were traced around areas of interest. A background circle of equal size was also placed in the area on the membrane where there is no lipid and set as the background. The areas of interest were quantified as the average pixel intensity subtracted from the background.
These strips are spotted with 100 pmole of each lipid in a biologically active form.
Further investigation of the interaction of Solanaceae class I and class II defensins with cellular lipids was carried out by solid-state lipid binding assays using Echelon™ PIP Strips. […] Defensin binding was quantitated by densitometry on the developed lipid strips.

[4] = test system: Fusarium oxysporum f. sp. vasinfectum; conditions: read-out: IC50, growth of Fusarium oxysporum f. sp. vasinfectum
Experimental: Permeabilization of fungal membranes has also been reported for some plant defensins (Lay and Anderson, 2005). […] These five fungal species are all members of the ascomycete phylum and are distributed among three classes in the subphylum pezizomycotiria. These fungi are agronomically important fungal pathogens.
SP Sepharose elution fractions containing rNaD1 were loaded onto an analytical C8 RP-HPLC column and eluted using a 40 min linear gradient (0-100% buffer B). Proteins were detected by absorbance at 215 nm. […] Graph represents data from three separate experiments performed in quadruplicate. Error bars represent standard error of the mean.

human red blood cells = test: Red blood cell (RBC) lysis; conditions: for haemolytic activity: concentrations up to 100 μM
Experimental: Following ficoll-paque separation, RBCs were collected and washed with 1×PBS and pelleted at 1000×g for 10 min. RBCs were diluted 1 in 10 for treatment with increasing concentrations (0-100 μM) of defensins and incubated over-night under a humidified atmosphere of 5% CO2/95% air. […] The degree of red blood cell lysis was measured as absorbance at 412 nm.

[5] = Acute oral toxicity (OECD Test Guideline 423); assay type: in vivo, C57BL/6 mice
From the text: This study was based on OECD Test Guideline 423 (OECD [Organisation for Economic Co-operation and Development]. 2001. Guideline 423: Acute Oral Toxicity—Acute Toxic Class Method. Paris: OECD).
Healthy female C57BL/6 mice derived from the same litter were obtained from either the Central Animal House at La Trobe University (Bundoora Campus) or from Monash Animal Services. The animals were identified by ear punch and kept three per cage during the study. The animals will be housed and maintained in groups of three in cages as per standard animal house conditions at La Trobe University.
On the day of dosing, the test mice were weighed and fasted for 4 h prior to dose administration. Just prior to dosing, the mice were reweighed. […] The protein solution was administered by oral gavage using a round-tipped canula needle. Feed was replaced 1 h after dosing. The mice received standard rodent diet and water ad libitum.
The mice were observed hourly for 4 h after dosing on day 1 and at least twice daily thereafter until scheduled killing on day 14. Signs of gross toxicity, adverse pharmacologic effects and behavioural changes were assessed and recorded daily as was the food and water consumption. The mice were reweighed at days 7 or 8 and 14. On the last day of the study (day 14), the mice were killed by inhalation of carbon dioxide and necropsied. All the mice received a gross pathological examination. The weights of the following organs were recorded: brain, heart, liver, lungs, kidneys, gastrointestinal tract, spleen and thymus. Subsequently, the samples were fixed in 4% (v/v) paraformaldehyde until paraffin embedding, sectioning and histopathological examination by the Australian Phenomics Network, University of Melbourne node. The gastrointestinal tract was divided into the following sections: stomach, duodenum, jejunum, ileum, cecum and colon.

[6] = test system: human coronary artery smooth muscle cells (CASMC) and umbilical vein endothelial cells (HUVEC); conditions: read-out: IC50, viability of normal primary cells (MTT), 48 h
Experimental: Tumour cells were seeded in a 96-well microtitre plate (50 μL/well) at an optimum density determined in the cell optimisation assay as above. Background control wells (n=8) containing the same volume of complete culture medium were included in the assay. The microtitre plate was incubated overnight at 37° C., prior to the addition of proteins at various concentrations and the plate was incubated for a further 48 h. The cell viability 3-(4,5-dimethyl-2-thiazolyl)-2,5-diphenyl-2H-tetrazolium bromide (MTT, Sigma-Aldrich) assay was carried out as follows: the MTT solution (1 mg/mL) was added to each well (100 μL) and the plate incubated for 2-3 h at 37° C. under a humidified atmosphere containing 5% CO2/95% air. Subsequently, for adherent cell lines, the media was removed and replaced with dimethyl sulfoxide (100 μL, DMSO, Sigma-Aldrich), and placed on a shaker for 5 min to dissolve the tetrazolium salts. In the case of suspension cells, prior to the addition of DMSO the cells are spun at 1500 rpm for 5 min. Absorbance of each well was measured at 570 nm and the IC50 values (the protein concentration to inhibit 50% of cell growth) were determined using the Origin Software Program. […]

Phoma betae = conditions: 1 μg/mL; cited from earlier work
Sclerotinia sclerotiorum = conditions: 100 μg/mL; cited from earlier work
[7] = oral gavage, 20, 50 or 300 mg NaD1/kg body weight, 14 days
[8] = Example 11, 30 min at 37° C., concentration printed 'at 100' (10 μM in the same block)

Substance: rTPP3: Solanum lycopersicum (tomato) Class II defensin TPP3, recombinant (SEQ ID NO: 12) (AQQICKAPSQTFPGLCFMDSSCRKYCIKEKFTGGHCSKLQRKCLCTKPC; listed as Solanum lycopersicum)
- PI+ U937 cells ([1]; 5 μM, 30 min, 37° C.): ~35%
- PI+ U937 cells (mean ± SEM) [1]: 49.97±2.93%
- PI+ U937 cells ([1]; 40 μM, 30 min, 37° C.): ~90%
- release of ATP from U937 cells [2]: release of ATP in a time-dependent and concentration-dependent manner
- retention of permeabilisation activity (U937 cells; 5-40% FCS): up to 70%
- activity on tumour cells in the presence of serum (U937 cells): retained the ability to permeabilise U937 cells
- phospholipid binding preference (PIP strips) [3]: general preference of binding to phosphoinositides

Substance: PhD1A: Petunia hybrida Class II defensin; mature domain SEQ ID NO: 18 (ATCKAECPTWDGICINKGPCVKCCKAQPEKFTDGHCSKVLRRCLCTKPC; listed as Petunia hybrida)
- PI+ U937 cells ([1]; 6.25 μM, 30 min, 37° C.): ~35%
- PI+ U937 cells (mean ± SEM) [1]: 57.07±2.76%
- PI+ U937 cells ([1]; 50 μM, 30 min, 37° C.): ~90%
- release of ATP from U937 cells [2]: release of ATP in a time-dependent and concentration-dependent manner
- PI+ U937 cells (U937 cells; 0% FCS): 90%
- PI+ U937 cells (U937 cells; 40% FCS): 40%
- activity on tumour cells in the presence of serum (U937 cells): retained the ability to permeabilise U937 cells
- binding to phosphatidic acid (PA) [3]: bound strongly
- phospholipid binding preference (PIP strips) [3]: general preference of binding to phosphoinositides

Substance: RECKTESNTFPGICITKPPCRKACISEKFTDGHCSKILRRCLCTKPC (disulfide 3-47, 14-34, 20-41, 24-43) [NaD1]
- pIC50 [4]: ~6.00
- RBC lysis (relative to water = 100% lysis) (human red blood cells; 100 μM, 16 h, 37° C.): ~50%
- adverse effects on mice ([5]; administered orally at up to 300 mg NaD1/kg body weight): no adverse effects
- histopathology of organs ([5]; highest dose of 300 mg NaD1/kg body weight): possible slight irritation to the stomach epithelium
- body weight [5, 7]: no treatment related effects on body weight
- clinical signs [5, 7]: no signs of gross toxicity, adverse pharmacologic effects or behavioural changes
- survival [5, 7]: survived to termination of the study
- histopathology of organs ([5]; oral gavage, doses below 300 mg NaD1/kg body weight): No pathologies, attributable to protein administration
- pIC50 [6]: 4.92 to 5.12

Substance: NsD2: Nicotiana suaveolens class II defensin; mature domain SEQ ID NO: 26 (KDCKRESNTFPGICITKLPCRRACISEKFADGHCSKILRRCLCTKPC; listed as Nicotiana suaveolens)
- PI+ U937 cells [1, 8]: ~60%
- release of ATP from U937 cells [2]: release of ATP in a time-dependent and concentration-dependent manner
- phospholipid binding preference (PIP strips) [3]: general preference of binding to phosphoinositides

Substance: NsD1: Nicotiana suaveolens class II defensin; mature domain SEQ ID NO: 22 (KDCKRESNTFPGICITKPPCRKACIREKFTDGHCSKILRRCLCTKPC; listed as Nicotiana suaveolens)
- PI+ U937 cells [1, 8]: ~60%
- release of ATP from U937 cells [2]: release of ATP in a time-dependent and concentration-dependent manner
- phospholipid binding preference (PIP strips) [3]: general preference of binding to phosphoinositides

Substance: ARECKTESNTFPGICITKPPCRKACISEKFTDGHCSKILRRCLCTKPC (disulfide 4-48, 15-35, 21-42, 25-44) [rNaD1]
- pIC50 [4]: ~5.80
- haemolytic activity (human red blood cells): no ability to lyse RBCs
- haemolytic activity (human red blood cells; listed as recombinant NaD1): no haemolytic activity
- pIC50 [6]: 4.92 to 5.12

Substance: Rs-AFP2: antifungal plant defensin from radish seeds (QKLCQRPSGTWSGVCGNNNACKNQCIRLEKARHGSCNYVFPAHKCICYFPC; UniProt P30230 30-80, looked up)
- growth of Phoma betae (Phoma betae): inhibits the growth
- activity against Sclerotinia sclerotiorum (Sclerotinia sclerotiorum): ineffective

Reference: patent US20120172313A1, “TREATMENT OF PROLIFERATIVE DISEASES” (priority 2010, published 2012)
